Experimental data as given in US11896589B2, “Diazinyl amino acridines and medical uses thereof” (MyCural Therapeutics AB, priority 2018, dated 2024).
Where two headings read alike, the source gives them in different places.

Key:
[1] = target: T1, MYCbHLHZip (Homo sapiens, UniProt P01106); assay: Assay 2B MYC SPR assay; type: binding
T1 construct: An amino coupling procedure was used to immobilize MYCbHLHZip protein on a CM5 sensor chip
Procedure: FIG. 3: A) SPR assay to determine affinity of Example 1 to MYC. MYC bHLHZip protein was immobilized by aminocoupling on a CM5 sensor chip. Example 1 was injected at various concentrations in a kinetic experiment. The reference surface was subtracted from the analyte surface to generate a sensorgram. […] B) Four MYC equilibrium binding experiments with Example 1 summarized in an equilibrium binding plot. […] Equilibrium binding experiments of MYC with Example 2 and control compound (non-binder) were plotted as well. Assay 2B. MYC SPR Assay To analyze the direct binding of compounds to MYC, the direct binding of compounds to MYC was detected by surface plasmon resonance (SPR) as described above (Biological example 1—Assay 1B). An amino coupling procedure was used to immobilize MYCbHLHZip protein on a CM5 sensor chip (GE Healthcare) resulting in immobilization levels of approximately 800 respectively 1000 RU. The compounds were injected at different concentrations, one at a time, over the surface for 50-80 seconds with a flow rate of 30 μl/min. Afterwards the compounds were allowed to dissociate for 240 seconds in running buffer (137 mM NaCl, 2.7 mM KCl, 10 mM Na2HPO4, 1.8 mM KH2PO4, 0.005% Tween-20, 1% DMSO, pH 7.4). To remove all remaining analyte the surface was regenerated with 2M Urea for 30 seconds and thereafter 1M NaCl, 2.7 mM KCl, 10 mM Na2HPO4, 1.8 mM KH2PO4, 1% DMSO, pH 7.4 for 30 seconds. Sensorgrams were generated by subtraction of the reference (blank immobilized) surface. Binding responses were related to respective compounds' Rmax. Rmax is the maximum response of a compound when it binds with a 1:1 stochiometry to the protein; Rmax=(MW analyte/MW ligand)×immobilized ligand level on the chip (RU) x stoichiometry (1:1). Kinetic experiments were carried out where recombinant MYC bHLHZip was immobilized on the chip and different concentrations of Example 1 were injected as above. […] Example 2-6 were analyzed for their MYC binding properties by equilibrium binding experiments as described for example 1.

[2] = tested on: MYC-ER driven transcription of ODC1, RSG16, CR2 in U2OS-MYC-ER cells; assay: Assay 4 MYC target gene expression (RT-qPCR); type: cell-based
Procedure: FIG. 5: A) Inhibition of MYC transactivation of target genes (A) ODC1, (B) RSG16, and (C) CR2 as determined by RT-qPCR analysis, based on three biological experiments with three technical repeats each. U2OS-MYC-ER cells were treated with or without 100 nM 4-hydroxy-tamoxifen (HOT) for 4 hours, after which DMSO or Example 1 was added for 24 hours before total RNA was extraction. Fold changes in mRNA expression are presented relative to DMSO in non-HOT-treated cells after normalization to GAPDH, used as reference gene. Assay 4: Gene Expression To investigate the effect of the compounds on MYC-driven transcription, we utilized U2OS cells containing a MYC-estrogen receptor (MYC-ER) fusion protein, the activity of which is regulated by the ligand 4-hydroxytamoxifen (HOT). RT-qPCR was performed essentially as described in Bahram, F. et al. Interferon-gamma-induced p27KIP1 binds to and targets MYC for proteasome-mediated degradation. Oncotarget 7, 2837-2854, doi:10.18632/oncotarget.6693 (2016).

[3] = tested on: non-MYCN-amplified neuroblastoma cells (SK-N-F1, SK-N-RA, SK-N-AS); assay: Assay 5A neuroblastoma cell growth (WST-1), non-MYCN-amplified; type: cell-based
Procedure: FIG. 6: A-B) Neuroblastoma cell lines with (SK-N-DZ, Kelly and IMR-32) or without (SK-N-F1, SK-N-RA and SK-N-AS) MYCN-amplification were exposed to different concentrations of Example 1, Example 2 and control compound, respectively, for 48 hours. Cell growth and viability was estimated by measuring metabolic activity. C) Growth of TGR-1 (wt), HO15.19 (MYC knockout) and HOmyc3 (MYC reconstituted HO15.19) Rat1 fibroblasts, as measured by the WST-1 assay after treatment with Example 1. Data are shown as mean±standard deviation of 3-5 biological experiments, each with 3 technical repeats.
Assay 5A: Neuroblastoma Cell Growth
Neuroblastoma cell lines with (SK-N-DZ, Kelly and IMR-32) or without (SK-N-F1, SK-N-RA and SK-N-AS) MYCN-amplification were exposed to different concentrations of example compounds for 48 hours. Cell growth and viability was estimated by measuring metabolic activity by incubating cells in triplicates with WST-1 (Roche) in medium at 37° C. and 5% CO2 for 2 hours after which absorbance was measured with an Omega Fluostar (BMG Labtech) in a 96 well plate format.

T1 sequence (P01106 368-449 limits assumed): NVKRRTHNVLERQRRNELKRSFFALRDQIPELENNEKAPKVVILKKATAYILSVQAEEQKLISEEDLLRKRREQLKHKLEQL

CCOc1ccc2nc3cc(/N=N/c4ccc(N)nc4N)ccc3c(N)c2c1 [Example 1, 3-((9-amino-7-ethoxyacridin-3-yl)diazenyl)pyridine-2,6-diamine sulphate hydrate]
Kd ([1]; 1:1 Langmuir model, read-out: KD (average of four kinetic experiments)): 1600 ± 500 nM | Kd ([1]; Langmuir 1:1, constant Rmax 43 RU, read-out: KD (one representative kinetic experiment)): 2500 nM | Binding relative to Rmax ([1]; equilibrium binding experiments): 1.6 Response Units | kon ([1]; representative kinetic experiment, read-out: association rate ka): 9290 M⁻¹ s⁻¹ | koff ([1]; representative kinetic experiment, read-out: dissociation rate kd): 0.0229 s⁻¹ | inhibition of gene expression, CR2 gene ([2]; 10 μM): 100% | inhibition of gene expression, ODC1 gene ([2]; 10 μM): 100% | inhibition of gene expression, RSG16 gene ([2]; 10 μM): 68% | HOT-induced expression of all three MYC target genes ([2]; 24 hours): significantly reduced | GI50 ([3]; Homo sapiens, SK-N-AS, 48 h, first run): > 20000 nM | GI50 ([3]; Homo sapiens, SK-N-AS, second run): > 25000 nM | GI50 ([3]; first run, 48 hours, sulphate hydrate): > 25000 nM
